The subject of data set [1] is HeLa (human cervix carcinoma) cells. The data set can be described thus: MTT cytotoxicity assay, HeLa. It is filed as cell-based. Particulars: 48 h incubation, average (SD) of three experiments, read-out: IC50 HeLa. A general note: Tetrazolium dyes change colour on reduction, which living cells bring about.
Data set [2] concerns MOLT-4 (Human T-Lymphoid Cell Line). The data set is described as follows: MTT cytotoxicity assay, MOLT-4. In kind it is cell-based. The conditions noted are these: MOLT-4, 48 h incubation, average (SD) of three experiments, read-out: IC50 MOLT-4.
The nature of data set [3]: Lipophilicity (logkw) by reversed-phase chromatography (RP-HPLC). In kind it is physicochemical. The conditions noted are these: for logkw (Experimental): extrapolated to pure water; for logkw (Table S2): intercept of logk vs methanol fraction, n = 4. An excerpt:
The main goal of the synthetic part was the synthesis of new derivatives of dicarboximides with decreased lipophilicity in comparison to the lead compounds, i.e., Ia–Ie and II. To reduce the lipophilicity of the new dicarboximides, a hydroxyalkyl chain connected with an aliphatic amine was introduced to the imides (Scheme 1). At the same time, the imide scaffold in derivatives from group 2 and 3 was the same as in lead compounds Ia–Ie and II, respectively (Figure 1). The structure of the imide was changed in derivatives 1b–1g. The lipophilicity of new derivatives was calculated using the Osiris Property Explorer program. For some compounds, lipophilicity was determined experimentally by a reversed-phase chromatography (detailed description is given in Materials and Methods and in the Supplementary Data, Table S2). Table 1 summarizes the calculated (clogP) and experimental (logkw) parameters of the lipophilicity of new derivatives.
The reversed-phase high-performance liquid chromatography (RP-HPLC) analysis was performed on a Merck–Hitachi LaChrom Elite System (Merck, Darmstadt, Germany) with diode array detector L-2455, thermostat L-2300, pump L-2130, and autosampler L-2200 and with the Waters XTerra MS RP-18 (3.5 μm, 150 × 4.6 mm) chromatographic column (Waters, Milford, MA, USA) as the stationary phase. The mobile phase consisted of methanol, water, and 0.1% (v/v) formic acid and was degassed by the use of the built-in membrane degasser. The methanol gradient grade for HPLC was purchased from Merck (Merck, Darmstadt, Germany) and formic acid from Polish Reagents (Polish Reagents, Gliwice, Poland); double-distilled water was used. Then, 5 μL of methanolic solutions (0.1%; m/v) of selected samples were applied to the chromatographic column by the use of an autosampler Hitachi L-2200 (LaChrom Elite, Hitachi-Merck, Darmstadt, Germany). The analysis was performed with the flow rate of 0.7 mL min^−1 in isocratic mode using various concentrations of organic modifier (methanol) in binary polar mobile phases; percentages of methanol in water were 45–70% (%, v/v) and changed by 5% per step. Chromatograms were detected at 254 nm and the temperature of the column was 25 °C. All experiments were repeated in triplicate, and the final results were taken to be the arithmetic means. Dead time was measured by the use of uracil (Calbiochem. Merck, Darmstadt, Germany). Statistical and regression analyses were performed using Statistica (ver. 13.3 for Windows). The chromatographic lipophilicity parameters ( logkW ) for selected samples were obtained by the extrapolation of the retention parameter logk to pure water, according to Equation (1):(1) logk=logkw−S·ϕ; where logkW is the value of the retention factor of a substance in pure water, S is the slope of the regression curve, and ϕ is the concentration of the organic modifier. The values of logk were calculated based on the raw HPLC data using the formula (2):(2) logk=logtR−t0/t0; where tR is the retention time and t0 is the dead retention time (determined for uracil).
The chromatographic lipophilicity parameters (logkௐ ) for selected samples were ob‐ tained by the extrapolation of the retention parame te r logk to pure water, according to […]
where logkௐ is the value of the retention factor of a substance in pure water, S is the slope of the regression curve, and φ is the concentration of the organic modifier. The values of logk were ca lcula ted based on the raw HPLC data using the formula: […]
logk ൌ log ሺ௧ೃ ି ௧బ௧బ ሻ (2) where tோ is the retention time and t଴ is the dead retention time (determined for ura‐ cil). The goodness of fit of the equation (1) to the experimental data was classified accord‐ ing to Jaffe (Jaffe, H. H. A Reexamination of the Hammet Equation. Chem. Rev. 1953, 53, In our RP‐HPLC experiments, the goodness of fit of the equation to the experi‐ mental data are excellent in most ca ses (r > 0.99). The F statistic val ues are, in all cases, […]

Molecules are shown by their SMILES. pIC50: −log10 of the molar value.

Here are results for four molecules from publication PMC8122671, “New Succinimides with Potent Anticancer Activity: Synthesis, Activation of Stress Signaling Pathways and Characterization of Apoptosis in Leukemia and Cervical Cancer Cells” (International Journal of Molecular Sciences, 2021).

As to `CCN(CC)CC(O)CN1C(=O)C2C(C1=O)C1(c3ccccc3)CC2(c2ccccc2)C(c2ccccc2)=C1c1ccccc1` (stereo not shown) [3d, 4-[3-(diethylamino)-2-hydroxypropyl]-1,7,8,9-tetraphenyl-4-azatricyclo[5.2.1.0^2,6]dec-8-ene-3,5-dione], the pIC50 (in general, the negative decadic logarithm of the IC50, by convention in mol/L) in data set [1] is 5.72; in data set [2] it was 5.66. For the same molecule, the “logkw (Experimental)” value in data set [3] is listed as 6.28. In addition, the “logkw (Table S2)” value in data set [3] is 6.2845.

Consider `CC(C)(C)NCC(O)CN1C(=O)C2C(C1=O)C1(c3ccccc3)CC2(c2ccccc2)C(c2ccccc2)=C1c1ccccc1` (stereo not shown) [3c, 4-[3-(tert-butylamino)-2-hydroxypropyl]-1,7,8,9-tetraphenyl-4-azatricyclo[5.2.1.0^2,6]dec-8-ene-3,5-dione], for which the pIC50 in data set [1] was 5.70. Besides, the pIC50 in data set [2] was 5.59. In data set [3], the “logkw (Experimental)” value was 6.06 and the “logkw (Table S2)” value is listed as 6.0611.

As for `CCC12C(=O)C(CC)(C(c3ccccc3)=C1c1ccccc1)C1C(=O)N(CC(O)CNC(C)(C)C)C(=O)C12` (stereo not shown) [2c, 4-[3-(tert-butylamino)-2-hydroxypropyl]-1,7-diethyl-8,9-diphenyl-4-azatricyclo [5.2.1.0^2,6]dec-8-ene-3,5,10-trione], the pIC50 in data set [1] is 5.49. For the same molecule, the pIC50 in data set [2] was 5.60. In data set [3], the “logkw (Experimental)” value is 4.74 and the “logkw (Table S2)” value was found to be 4.7442.

Take `CCN(CC)CC(O)CN1C(=O)C2C(C1=O)C1(CC)C(=O)C2(CC)C(c2ccccc2)=C1c1ccccc1` (stereo not shown) [2d, 4-[3-(diethylamino)-2-hydroxypropyl]-1,7-diethyl-8,9-diphenyl-4-azatricyclo [5.2.1.0^2,6]dec-8-ene-3,5,10-trione]: the pIC50 in data set [1] is 4.74. Also, in data set [2], the negative logarithm of the IC50 (pIC50) was 4.85. In addition, in data set [3], the “logkw (Experimental)” value is listed as 5.10 and the “logkw (Table S2)” value stood at 5.1042.
